This experiment deals with T1, human GPR119 (Homo sapiens, UniProt Q8TDV5).
T1 construct: expressed in transfected cells
T1 sequence (Q8TDV5 1-335): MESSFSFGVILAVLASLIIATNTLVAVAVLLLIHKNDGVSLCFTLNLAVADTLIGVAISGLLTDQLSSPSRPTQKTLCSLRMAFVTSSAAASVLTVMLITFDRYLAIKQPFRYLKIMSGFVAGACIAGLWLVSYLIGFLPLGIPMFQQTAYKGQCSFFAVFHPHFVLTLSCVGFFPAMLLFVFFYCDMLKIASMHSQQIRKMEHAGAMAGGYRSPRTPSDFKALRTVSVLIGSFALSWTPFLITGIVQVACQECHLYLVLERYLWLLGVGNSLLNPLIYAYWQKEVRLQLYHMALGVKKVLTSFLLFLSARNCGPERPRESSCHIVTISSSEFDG
Put plainly: Functional cellular assay measuring GPR119-mediated cAMP release (HTRF) in HEK-293 cells stably expressing recombinant human GPR119. The experiment is classed as cell-based. Conditions: cAMP response, cell line expressing human GPR119, 30 minutes at room temperature. The method in brief: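 HEK-293 cells stably expressing recombinant human GPR119, suspended at 400000 cells/mL in HBSS/20 mM HEPES/0.1% BSA/2 mM IBMX, exposed to compound for 30 minutes at room temperature. cAMP detected by HTRF (665/620 nm ratio) after 1 h with reagents in lysis buffer. EC50 taken as concentration giving 50% of maximal activation.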
Background: TR-FRET usually uses a lanthanide donor and a delayed reading to cut background.

For the compound `CN(C)C(=O)CN1Cc2ccc(N3CC[C@@H](Oc4ccc(C(=O)C5(C)CC5)nc4)C3=O)cc2C1=O` [Example 2-59, N,N-dimethyl-2-[6-[(3R)-3-[[6-(1-methylcyclopropanecarbonyl)-3-pyridyl]oxy]-2-oxo-pyrrolidin-1-yl]-1-oxo-isoindolin-2-yl]acetamide], the EC50 (commonly the concentration giving half of the maximal effect) was 330 nM.
The result for `Cc1cnc(-c2ccc(O[C@@H]3CCN(c4ccc5c(c4)C(=O)N(CC(=O)N(C)C)C5)C3=O)cn2)s1` [Example 2-60, N,N-dimethyl-2-[6-[(3R)-3-[[6-(5-methylthiazol-2-yl)-3-pyridyl]oxy]-2-oxo-pyrrolidin-1-yl]-1-oxo-isoindolin-2-yl]acetamide] reads 97 nM; that for `CN(C)C(=O)CN1Cc2ccc(N3CC[C@@H](Oc4ccc(C(=O)c5ccc(F)cc5)nc4)C3=O)cc2C1=O` [Example 2-61, 2-[6-[(3R)-3-[[6-(4-fluorobenzoyl)-3-pyridyl]oxy]-2-oxo-pyrrolidin-1-yl]-1-oxo-isoindolin-2-yl]-N,N-dimethyl-acetamide], 106 nM; that for `CN(C)C(=O)CN1Cc2ccc(N3CC[C@@H](Oc4ccc(C(=O)C5CC5)c(F)c4)C3=O)cc2C1=O` [Example 2-62, 2-[6-[(3R)-3-[4-(cyclopropanecarbonyl)-3-fluoro-phenoxy]-2-oxo-pyrrolidin-1-yl]-1-oxo-isoindolin-2-yl]-N,N-dimethyl-acetamide], 59 nM.
The result for `CN(C)C(=O)CN1Cc2ccc(N3CC[C@@H](Oc4ccc(C(=O)C5CC(F)(F)C5)cc4)C3=O)cc2C1=O` [Example 2-63, 2-[6-[(3R)-3-[4-(3,3-difluorocyclobutanecarbonyl)phenoxy]-2-oxo-pyrrolidin-1-yl]-1-oxo-isoindolin-2-yl]-N,N-dimethyl-acetamide] reads 98 nM; that for `CN(C)C(=O)CN1Cc2ccc(N3CC[C@@H](Oc4ccc(-c5ncc(F)s5)cc4)C3=O)cc2C1=O` [Example 2-64, 2-[6-[(3R)-3-[4-(5-fluorothiazol-2-yl)phenoxy]-2-oxo-pyrrolidin-1-yl]-1-oxo-isoindolin-2-yl]-N,N-dimethyl-acetamide], 38 nM; that for `CN(C)C(=O)CN1Cc2ccc(N3CC[C@@H](Oc4ccc(C(=O)C5CC5(F)F)cc4)C3=O)cc2C1=O` (stereo partly drawn) [Example 2-65, 2-[6-[(3R)-3-[4-(2,2-difluorocyclopropanecarbonyl)phenoxy]-2-oxo-pyrrolidin-1-yl]-1-oxo-isoindolin-2-yl]-N,N-dimethyl-acetamide], 125 nM.
On to `CN(C)C(=O)CN1Cc2ccc(N3CC[C@@H](Oc4ccc(C(=O)CCC(F)(F)F)cc4)C3=O)cc2C1=O` [Example 2-66, N,N-dimethyl-2-[1-oxo-6-[(3R)-2-oxo-3-[4-(4,4,4-trifluorobutanoyl)phenoxy]pyrrolidin-1-yl]isoindolin-2-yl]acetamide], for which the EC50 turned out to be 52 nM.
For `O=C(O)CN1Cc2c(F)cc(N3CC[C@@H](Oc4ccc(OCC5CC5)nc4)C3=O)cc2C1=O` [Example 3-01, 2-[6-[(3R)-3-[[6-(cyclopropylmethoxy)-3-pyridyl]oxy]-2-oxo-pyrrolidin-1-yl]-4-fluoro-1-oxo-isoindolin-2-yl]acetic acid], the EC50 was 1050 nM.
The result for `O=C(O)CN1Cc2ccc(N3CC[C@@H](Oc4ccc(OCC5CC5)nc4)C3=O)cc2C1=O` [Example 3-02, 2-[6-[(3R)-3-[[6-(cyclopropylmethoxy)-3-pyridyl]oxy]-2-oxo-pyrrolidin-1-yl]-1-oxo-isoindolin-2-yl]acetic acid] reads 443 nM; that for `O=C(O)CN1Cc2c(F)cc(N3CC[C@@H](Oc4ccc(OCCC5CC5)nc4)C3=O)cc2C1=O` [Example 3-03, 2-[6-[(3R)-3-[[6-(2-cyclopropylethoxy)-3-pyridyl]oxy]-2-oxo-pyrrolidin-1-yl]-4-fluoro-1-oxo-isoindolin-2-yl]acetic acid], 87 nM; that for `O=C(O)CNC(=O)CN1Cc2ccc(N3CC[C@@H](Oc4ccc(OCC5CC5)nc4)C3=O)cc2C1=O` [Example 3-04, 2-[[2-[6-[(3R)-3-[[6-(cyclopropylmethoxy)-3-pyridyl]oxy]-2-oxo-pyrrolidin-1-yl]-1-oxo-isoindolin-2-yl]acetyl]amino]acetic acid], 807 nM.
The result for `O=C(O)CN1Cc2ccc(N3CC[C@@H](Oc4ccc(OCC(F)(F)F)nc4)C3=O)cc2C1=O` [Example 3-05, 2-[1-oxo-6-[(3R)-2-oxo-3-[[6-(2,2,2-trifluoroethoxy)-3-pyridyl]oxy]pyrrolidin-1-yl]isoindolin-2-yl]acetic acid] reads 544 nM; that for `O=C(CN1Cc2ccc(N3CC[C@@H](Oc4ccc(OCC5CC5)nc4)C3=O)cc2C1=O)N1CCCC1` [Example 4-01, 6-[(3R)-3-[[6-(cyclopropylmethoxy)-3-pyridyl]oxy]-2-oxo-pyrrolidin-1-yl]-2-(2-oxo-2-pyrrolidin-1-yl-ethyl)isoindolin-1-one], 106 nM.
Take `COCCNC(=O)CN1Cc2ccc(N3CC[C@@H](Oc4ccc(OCC5CC5)nc4)C3=O)cc2C1=O` [Example 4-02, 2-[6-[(3R)-3-[[6-(cyclopropylmethoxy)-3-pyridyl]oxy]-2-oxo-pyrrolidin-1-yl]-1-oxo-isoindolin-2-yl]-N-(2-methoxyethyl)acetamide]: the EC50 amounted to 144 nM.
The result for `O=C(CN1Cc2ccc(N3CC[C@@H](Oc4ccc(OCC5CC5)nc4)C3=O)cc2C1=O)N1CCC(O)CC1` [Example 4-03, 6-[(3R)-3-[[6-(cyclopropylmethoxy)-3-pyridyl]oxy]-2-oxo-pyrrolidin-1-yl]-2-[2-(4-hydroxy-1-piperidyl)-2-oxo-ethyl]isoindolin-1-one] reads 206 nM; that for `O=C(CN1Cc2ccc(N3CC[C@@H](Oc4ccc(OCC5CC5)nc4)C3=O)cc2C1=O)N1CC(O)C1` [Example 4-04, 6-[(3R)-3-[[6-(cyclopropylmethoxy)-3-pyridyl]oxy]-2-oxo-pyrrolidin-1-yl]-2-[2-(3-hydroxyazetidin-1-yl)-2-oxo-ethyl]isoindolin-1-one], 197 nM; that for `O=C(CN1Cc2ccc(N3CC[C@@H](Oc4ccc(OCC5CC5)nc4)C3=O)cc2C1=O)NCCO` [Example 4-05, 2-[6-[(3R)-3-[[6-(cyclopropylmethoxy)-3-pyridyl]oxy]-2-oxo-pyrrolidin-1-yl]-1-oxo-isoindolin-2-yl]-N-(2-hydroxyethyl)acetamide], 249 nM.
For `CN(CCO)C(=O)CN1Cc2ccc(N3CC[C@@H](Oc4ccc(OCC5CC5)nc4)C3=O)cc2C1=O` [Example 4-06, 2-[6-[(3R)-3-[[6-(cyclopropylmethoxy)-3-pyridyl]oxy]-2-oxo-pyrrolidin-1-yl]-1-oxo-isoindolin-2-yl]-N-(2-hydroxyethyl)-N-methyl-acetamide], the EC50 stood at 281 nM.
As for `NC(=O)CN1Cc2ccc(N3CC[C@@H](Oc4ccc(OCC5CC5)nc4)C3=O)cc2C1=O` [Example 4-07, 2-[6-[(3R)-3-[[6-(cyclopropylmethoxy)-3-pyridyl]oxy]-2-oxo-pyrrolidin-1-yl]-1-oxo-isoindolin-2-yl]acetamide], the figure is 163 nM; as for `O=C(CN1Cc2ccc(N3CC[C@@H](Oc4ccc(OCC5CC5)nc4)C3=O)cc2C1=O)NC1CC1` [Example 4-08, N-cyclopropyl-2-[6-[(3R)-3-[[6-(cyclopropylmethoxy)-3-pyridyl]oxy]-2-oxo-pyrrolidin-1-yl]-1-oxo-isoindolin-2-yl]acetamide], 168 nM; as for `CNC(=O)CN1Cc2ccc(N3CC[C@@H](Oc4ccc(OCC5CC5)nc4)C3=O)cc2C1=O` [Example 4-09, 2-[6-[(3R)-3-[[6-(cyclopropylmethoxy)-3-pyridyl]oxy]-2-oxo-pyrrolidin-1-yl]-1-oxo-isoindolin-2-yl]-N-methyl-acetamide], 107 nM.
Consider `O=C(CN1Cc2ccc(N3CC[C@@H](Oc4ccc(Oc5ccc(F)cc5)nc4)C3=O)cc2C1=O)N1CC(O)C1` [Example 4-10, 6-[(3R)-3-[[6-(4-fluorophenoxy)-3-pyridyl]oxy]-2-oxo-pyrrolidin-1-yl]-2-[2-(3-hydroxyazetidin-1-yl)-2-oxo-ethyl]isoindolin-1-one], for which the EC50 was found to be 208 nM.
As for `O=C(CN1Cc2ccc(N3CC[C@@H](Oc4ccc(Oc5ccc(F)cc5)nc4)C3=O)cc2C1=O)N1CCC(O)CC1` [Example 4-11, 6-[(3R)-3-[[6-(4-fluorophenoxy)-3-pyridyl]oxy]-2-oxo-pyrrolidin-1-yl]-2-[2-(4-hydroxy-1-piperidyl)-2-oxo-ethyl]isoindolin-1-one], the EC50 is 218 nM.
The result for `CN(CCO)C(=O)CN1Cc2ccc(N3CC[C@@H](Oc4ccc(Oc5ccc(F)cc5)nc4)C3=O)cc2C1=O` [Example 4-12, 2-[6-[(3R)-3-[[6-(4-fluorophenoxy)-3-pyridyl]oxy]-2-oxo-pyrrolidin-1-yl]-1-oxo-isoindolin-2-yl]-N-(2-hydroxyethyl)-N-methyl-acetamide] reads 297 nM; that for `CCOc1ccc(O[C@@H]2CCN(c3cc(F)c4c(c3)C(=O)N(CC(=O)NC)C4)C2=O)cn1` [Example 4-13, 2-[6-[(3R)-3-[(6-ethoxy-3-pyridyl)oxy]-2-oxo-pyrrolidin-1-yl]-4-fluoro-1-oxo-isoindolin-2-yl]-N-methyl-acetamide], 326 nM.
On to `CCOc1ccc(O[C@@H]2CCN(c3cc(F)c4c(c3)C(=O)N(CC(=O)N(CC)CC)C4)C2=O)cn1` [Example 4-14, 2-[6-[(3R)-3-[(6-ethoxy-3-pyridyl)oxy]-2-oxo-pyrrolidin-1-yl]-4-fluoro-1-oxo-isoindolin-2-yl]-N,N-diethyl-acetamide], for which the EC50 was found to be 288 nM.
